We go through 3 compounds from paper PMC9749896 (Bioorganic & medicinal chemistry letters, 2022).

Test [1] has as its system H1975 (EGFR^L858R/T790M). The settings on record: daily oral dosing at 100 mg/kg; cited from earlier work.
The test system of test [2] is Ba/F3 EGFR^L858R/T790M cells. The settings on record: cited from earlier work.
For test [3], the system named is EGFR^L858R/T790M/C797S models. To be noted: daily oral dosing at 50 mg/kg; cited from earlier work.
Test [4] has as its system A431 (wt EGFR). To be noted: daily oral dosing at 50 mg/kg; cited from earlier work.
Test [5] relates to Ba/F3 EGFR^L858R/T790M/C797S cells. The experiment in a line: cells. The settings on record: Mus musculus, BaF3, read-out: cell EC50, Ba/F3 EGFR L858R/T790M/C797S.
For test [6], the system named is Ba/F3 EGFR^L858R/T790M cells. Kind of test: cells. To be noted: Mus musculus, BaF3, read-out: cell EC50, Ba/F3 EGFR L858R/T790M.

With `O=C(Nc1nccs1)C(c1cc(F)ccc1O)N1Cc2ccc(-c3ccc(N4CCNCC4)cc3)cc2C1=O` (stereo not drawn) [Compound 2], the H1975 model efficacy entry in test [1] is listed as “efficacy was observed”. Further, the “single-agent activity in Ba/F3 EGFR L858R/T790M antiproliferative assay” value in test [2] is reported as “good single-agent activity”.

With `CN1CCC(c2ccc(-c3ccc4c(c3)C(=O)N(C(C(=O)Nc3nccs3)c3cc(F)ccc3O)C4)cc2)CC1` (stereo not drawn) [Compound 4], the “efficacy in triple mutant (EGFR L858R/T790M/C797S) models” value in test [3] was “tumor regression”. The “efficacy in A431 (wt EGFR) model” value in test [4] is given as “minimal effects”.

As for `CN1CCC(c2ccc(-c3ccc4ncn(C(C(=O)Nc5nccs5)c5ccccc5)c(=O)c4c3)cc2)CC1` (stereo not drawn) [Compound 23], the figures for the EC50 in test [5] and in test [6] were 0.05 µM and 0.72 µM, respectively.
